Reference: patent US20220274961A1, “SUBSTITUTED FUSED BI- OR TRI- HETEROCYCLIC COMPOUNDS AS EHMT2 INHIBITORS” (priority 2016, published 2022)

Biological target: T1, EHMT1 (Homo sapiens, UniProt Q9H9B1)
T1 sequence (Q9H9B1 1-1298): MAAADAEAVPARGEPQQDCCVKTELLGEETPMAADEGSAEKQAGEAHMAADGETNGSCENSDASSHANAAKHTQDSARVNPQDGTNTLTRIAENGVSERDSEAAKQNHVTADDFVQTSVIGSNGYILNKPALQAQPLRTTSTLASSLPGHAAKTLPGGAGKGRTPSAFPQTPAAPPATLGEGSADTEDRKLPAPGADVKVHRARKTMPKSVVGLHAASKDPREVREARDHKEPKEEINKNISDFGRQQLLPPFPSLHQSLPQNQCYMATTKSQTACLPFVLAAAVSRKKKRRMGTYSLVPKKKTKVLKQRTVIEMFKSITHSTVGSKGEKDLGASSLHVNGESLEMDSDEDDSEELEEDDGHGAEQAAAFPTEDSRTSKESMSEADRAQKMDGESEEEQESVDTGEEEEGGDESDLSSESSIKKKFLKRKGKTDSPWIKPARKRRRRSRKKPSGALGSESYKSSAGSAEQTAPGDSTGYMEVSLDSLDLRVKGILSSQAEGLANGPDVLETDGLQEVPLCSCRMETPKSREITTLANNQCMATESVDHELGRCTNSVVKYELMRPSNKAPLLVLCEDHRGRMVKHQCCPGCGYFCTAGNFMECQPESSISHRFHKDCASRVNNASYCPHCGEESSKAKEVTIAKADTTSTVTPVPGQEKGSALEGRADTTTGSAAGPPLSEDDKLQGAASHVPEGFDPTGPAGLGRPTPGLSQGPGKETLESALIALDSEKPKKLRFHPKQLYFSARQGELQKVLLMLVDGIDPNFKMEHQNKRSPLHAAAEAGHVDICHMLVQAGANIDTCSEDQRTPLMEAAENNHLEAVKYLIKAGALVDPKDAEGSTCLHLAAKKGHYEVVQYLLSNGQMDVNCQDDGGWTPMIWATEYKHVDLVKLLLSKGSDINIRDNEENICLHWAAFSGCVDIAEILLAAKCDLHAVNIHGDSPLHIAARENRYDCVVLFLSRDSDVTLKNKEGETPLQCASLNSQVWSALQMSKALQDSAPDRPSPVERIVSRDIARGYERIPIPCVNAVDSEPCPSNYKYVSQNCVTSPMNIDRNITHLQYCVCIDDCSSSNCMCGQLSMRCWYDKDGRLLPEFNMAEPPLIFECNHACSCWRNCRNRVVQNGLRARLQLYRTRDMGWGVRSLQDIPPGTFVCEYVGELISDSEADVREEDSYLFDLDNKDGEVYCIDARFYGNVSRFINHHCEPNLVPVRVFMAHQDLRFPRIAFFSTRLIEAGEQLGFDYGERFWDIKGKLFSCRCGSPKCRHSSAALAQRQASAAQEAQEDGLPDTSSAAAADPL
Assay: EHMT1 PEP
Format: biochemical

Row | IC50 | SMILES
1 | < 0.1 µM | COc1cc2[nH]c(N)nc2cc1OCCCN1CCCC1 [Compound 1, 6-methoxy-5-(3-(pyrrolidin-1-yl)propoxy)-1H-benzo[d]imidazol-2-amine]
2 | < 0.1 µM | COc1cc2c(cc1OCCCN1CCCC1)nc(N)n2C [Compound 2, 6-methoxy-1-methyl-5-(3-(pyrrolidin-1-yl)propoxy)-1H-benzo[d]imidazol-2-amine]
3 | < 0.1 µM | COc1cc2c(cc1OCCCN1CCCC1)nc(N)n2C1CCCC1 [Compound 3, 1-cyclopentyl-6-methoxy-5-(3-(pyrrolidin-1-yl)propoxy)-1H-benzo[d]imidazol-2-amine]
4 | < 0.1 µM | COc1cc2c(cc1OCCCN1CCCC1)N=C(N)C21CCOCC1 [Compound 5, 5-methoxy-6-(3-(pyrrolidin-1-yl)propoxy)-2′,3′,5′,6′-tetrahydrospiro[indole-3,4′-pyran]-2-amine]
5 | 1 to 10 µM | COc1cc2sc(N)nc2cc1OCCCN1CCCC1 [Compound 6, 6-methoxy-5-[3-(pyrrolidin-1-yl)propoxy]-1,3-benzothiazol-2-amine]
6 | < 0.1 µM | CNc1nc2cc(OCCCN3CCCC3)c(OC)cc2n1C [Compound 8, 6-methoxy-N,1-dimethyl-5-(3-(pyrrolidin-1-yl)propoxy)-1H-benzo[d]imidazol-2-amine]
7 | < 0.1 µM | CCN1CC[C@@H](COc2cc3nc(N)n(C4CCCC4)c3cc2OC)C1 [Compound 9, 1-cyclopentyl-5-[[(3R)-1-ethylpyrrolidin-3-yl]methoxy]-6-methoxy-1H-1,3-benzodiazol-2-amine]
8 | < 0.1 µM | CCN1CC(COc2cc3nc(N)n(C4CCCC4)c3cc2OC)C1 [Compound 10, 1-cyclopentyl-5-((1-ethylazetidin-3-yl)methoxy)-6-methoxy-1H-benzo[d]imidazol-2-amine]
9 | 0.1 to 1 µM | COc1cc2c(cc1OCCCN1CCCC1)nc(N)n2CC(F)(F)F [Compound 11, 6-methoxy-5-(3-(pyrrolidin-1-yl)propoxy)-1-(2,2,2-trifluoroethyl)-1H-benzo[d]imidazole-2-amine]
10 | 1 to 10 µM | COc1cc2c(cc1OCCCN1CCCC1)nc(NCC(F)(F)F)n2C [Compound 12, 6-methoxy-1-methyl-5-(3-(pyrrolidin-1-yl)propoxy)-N-(2,2,2-trifluoroethyl)-1H-benzo[d]imidazol-2-amine]
11 | < 0.1 µM | CNc1nc2cc(OCCCN3CCCC3)c(OC)cc2n1C1CCOCC1 [Compound 13, 6-methoxy-N-methyl-5-(3-(pyrrolidin-1-yl)propoxy)-1-(tetrahydro-2H-pyran-4-yl)-1H-benzo[d]imidazol-2-amine]
12 | 0.1 to 1 µM | COc1cc2c(cc1OCCCN1CCCC1)nc(N)n2CC1CCOCC1 [Compound 18]
13 | < 0.1 µM | COc1cc2c(cc1OCCCN1CCCC1)nc(N)n2C(C)C [Compound 19]
14 | 1 to 10 µM | COc1cc2c(cc1OCCCN1CCCC1)nc(C)n2C [Compound 21, 6-methoxy-1,2-dimethyl-5-(3-(pyrrolidin-1-yl)propoxy)-1H-benzo[d]imidazole]
15 | 1 to 10 µM | COc1cc2c(cc1OCCCN1CCCC1)nc(C1CCCC1)n2C [Compound 22, 2-cyclopentyl-6-methoxy-1-methyl-5-(3-(pyrrolidin-1-yl)propoxy)-1H-benzo[d]imidazole]
16 | 1 to 10 µM | COc1cc2c(cc1OCCCN1CCCC1)nc(C)n2C1CCCC1 [Compound 23, 1-cyclopentyl-6-methoxy-2-methyl-5-(3-(pyrrolidin-1-yl)propoxy)-1H-benzo[d]imidazole]
17 | < 0.1 µM | COc1cc2c(cc1C#CCN1CCCC1)N=C(N)C21CCC1 [Compound 24, 5′-methoxy-6′-(3-(pyrrolidin-1-yl)prop-1-yn-1-yl)spiro[cyclobutane-1,3′-indol]-2′-amine]
18 | < 0.1 µM | CNc1nc2cc(OC[C@H](O)CN3CCC3)c(OC)cc2n1C [Compound 25]
19 | < 0.1 µM | CNc1nc2cc(OC[C@H](O)CN3CCCC3)c(OC)cc2n1C [Compound 26]
20 | < 0.1 µM | CCNc1nc2cc(OCCCN3CCCC3)c(OC)cc2n1C [Compound 27]
21 | 0.1 to 1 µM | COc1cc2c(cc1OCCCN1CCCC1)nc(NC(C)C)n2C [Compound 28]
22 | 1 to 10 µM | COc1cc2c(cc1OCCCN1CCCC1)nc(NC1CCOCC1)n2C [Compound 29]
23 | 0.1 to 1 µM | COc1cc2c(cc1OCCCN1CCCC1)nc(NC1CCCC1)n2C [Compound 30]
24 | < 0.1 µM | CCNc1nc2cc(OC[C@H](O)CN3CCCC3)c(OC)cc2n1C [Compound 31]
25 | 0.1 to 1 µM | COc1cc2c(cc1OC[C@H](O)CN1CCCC1)nc(NC(C)C)n2C [Compound 32]

Row | IC50 | SMILES
26 | 0.1 to 1 µM | COc1cc2c(cc1OC[C@H](O)CN1CCCC1)nc(NC1CCCC1)n2C [Compound 33]
27 | < 0.1 µM | COc1cc2c(cc1OC[C@H](O)CN1CCCC1)nc(NCC1CC1)n2C [Compound 34]
28 | 1 to 10 µM | COc1cc2c(cc1OC[C@H](O)CN1CCCC1)nc(NC1CCOCC1)n2C [Compound 35]
29 | < 0.1 µM | CNc1nc2cc(OCCCN3CCCC3)c(OC)cc2n1C(C)C [Compound 36]
30 | < 0.1 µM | CNc1nc2cc(CNCCN3CCCC3)c(OC)cc2n1C [Compound 37]
31 | < 0.1 µM | CNc1nc2cc(OC[C@H](O)CN3CCCC3)c(OC)cc2n1C1CCCC1 [Compound 38]
32 | < 0.1 µM | CCNc1nc2cc(OCCCN3CCCC3)c(OC)cc2n1CC [Compound 39]
33 | < 0.1 µM | CNc1nc2cc(CNCCN3CCCC3)c(OC)cc2n1C(C)C [Compound 40]
34 | < 0.1 µM | CCn1c(NC)nc2cc(CNCCN3CCCC3)c(OC)cc21 [Compound 41]
35 | < 0.1 µM | CCn1c(NC)nc2cc(OCCCN3CCCC3)c(OC)cc21 [Compound 42]
36 | < 0.1 µM | CNC1=Nc2cc(CNCCN3CCCC3)c(OC)cc2C12CCC2 [Compound 70]
37 | < 0.1 µM | CCNC1=Nc2cc(CNCCN3CCCC3)c(OC)cc2C12CCC2 [Compound 71]
38 | < 0.1 µM | CCNC1=Nc2cc(CNCCN3CCC3)c(OC)cc2C12CCC2 [Compound 72]
39 | < 0.1 µM | CCCNC1=Nc2cc(CNCCN3CCCC3)c(OC)cc2C12CCC2 [Compound 73]
40 | < 0.1 µM | CNC1=Nc2cc(C#CCN3CCCC3)c(OC)cc2C12CCC2 [Compound 74]
41 | < 0.1 µM | CNC1=Nc2cc(C#CCN3CCCCC3)c(OC)cc2C12CCC2 [Compound 75, 5′-methoxy-N-methyl-6′-(3-(piperidin-1-yl)prop-1-yn-1-yl)spiro[cyclobutane-1,3′-indol]-2′-amine]
42 | 1 to 10 µM | COc1cc2c(cc1CNCCN1CCCC1)N=C(NC1CCOCC1)C21CCC1 [Compound 76]
43 | < 0.1 µM | CNC1=Nc2cc(C#CC(C)N3CCCC3)c(OC)cc2C12CCC2 (stereo not drawn) [Compound 84]
44 | < 0.1 µM | CNC1=Nc2cc(C#C[C@H](C)N3CCCC3)c(OC)cc2C12CCC2 [Compound 85]
45 | 0.1 to 1 µM | CNC1=Nc2cc(C#C[C@@H](C)N3CCCC3)c(OC)cc2C12CCC2 [Compound 86]
46 | < 0.1 µM | CNC1=Nc2cc(C#CC(C)N3CCCCC3)c(OC)cc2C12CCC2 (stereo not drawn) [Compound 92]
47 | < 0.1 µM | COCCNC1=Nc2cc(C#CCN3CCCCC3)c(OC)cc2C12CCC2 [Compound 99]
48 | 0.1 to 1 µM | CNC1=Nc2cc(C#CCN3CCC(F)C3)c(OC)cc2C12CCC2 (stereo not drawn) [Compound 100]
49 | 0.1 to 1 µM | CNc1nc2cc(CNCCN3CCCC3)c(Cl)cc2n1C(C)C [Compound 138]
50 | 0.1 to 1 µM | CNc1nc2cc(CNCCN3CCCC3)c(C)cc2n1C(C)C [Compound 139]

Row | SMILES | IC50
51 | COc1cc2c(cc1OCCCN1CCCC1)N=C(N)C21CCOC1 (stereo not drawn) [Compound 7, 5′-methoxy-6′-(3-(pyrrolidin-1-yl)propoxy)-4,5-dihydro-2H-spiro[furan-3,3′-indol]-2′-amine] | < 0.1 µM
